Experimental data as given in patent publication US20200260724A1, “METHODS TO FORMULATE NEUTRAL ORGANIC COMPOUNDS WITH POLYMER NANOPARTICLES” (Vive Crop Protection Inc., priority 2010, published 2020).

Experiments:
[1] = Viscosity of solutions and dispersions in cP; assay type: physicochemical; settings: temperature printed per sample, 23.1-26.0° C.
Procedure: Solid 2,4-dichlorophenoxyacetic acid (2,4-D) (0.158 g, 0.72 mmol) and fresh deionized water (50 mL) were added to a 100 mL glass beaker, along with a stir bar. The medium was connected to a pH meter and the reading was at 2.76. To the stirring dispersion, aqueous NaOH (10N) was added dropwise. As the pH increased, more solid 2,4-D dissolved the dispersion became more transparent. Eventually, all of the solid 2,4-D dissolved completely, and the solution appeared transparent. The pH and viscosity of the solution was measured at 10.76 and 0.93 cP at 25.4° C. For the reference, the viscosity of pure water was measured using the same instrument and shown a value of 0.92 cP at 26.4° C.

[2] = Pyrene fluorescent probe of nanoparticle microenvironment (I1/I3 ratio); assay type: physicochemical; settings: pyrene emission, excitation 340 nm
Description: The intensity ratio of the first and third vibronic bands (I1/I3) in the emission spectra of the pyrene monomer is very sensitive to the monomer's microenvironment, and can be used as a metric to gauge the hydrophobic nature of different polymer nanoparticles produced using the methods described in this patent.
The pyrene microenvironments from different polymer nanoparticles were probed for the following nanoparticles: Na^+-collapsed polyacrylic acid (Na-PAA), ZnO/polyacrylic nanoparticles (ZnO-PAA), Zn^2+-collapsed nanoparticles (Zn-PAA), Na^+-collapsed PMAA nanoparticles (Na-PMAA), Na^+-collapsed P(MAA-co-EA) nanoparticles (Na—P(MAA-EA), poly(vinyl pyrollidone)-collapsed polyacrylic acid nanoparticles (PVP/PAA). Aqueous pyrene-nanoparticle solutions were prepared as follows. 1.0 mg pyrene was dissolved in 10 mL discholormethane and was used as the stock pyrene solution (0.1 mg/mL). To prepare the aqueous pyrene-nanoparticle solutions, 10 micro liters of the stock pyrene solution was added to a 20 mL scintillation vial and was allowed to air dry in a fume hood for one hour. 80 mg of solid nanoparticles or polymer, 10 g of deionized water and a magnetic stir bar were then added to the vial. […] Emission spectra were measured on a Perkin Elmer LS 55 Luminescence Spectrometer using an excitation wavelength of 340 nm, having slit widths for both excitation and emission at 2.5 nm. […]

Row | Compound | Viscosity of solution or nanoparticle dispersion [1] [cP] | I1/I3 ratio ([2]; pH 6-8) | I1/I3 ratio ([2]; pH 8-10)
1 | O=C(O)COc1ccc(Cl)cc1Cl [2,4-D, 2,4-dichlorophenoxyacetic acid] | 0.93 |  | 
2 | c1cc2ccc3cccc4ccc(c1)c2c34 [Pyrene - control, pyrene] |  | 1.68 | 1.70
